Here are results for 19 compounds from patent US10344019B2 (priority 2010, dated 2019).

What all share (experiment): microbe, parasite or virus in culture
What all share (assay type): cell-based

For experiment [1], the system named is HCV 3a RLuc cells (NS5A chimeric genotype 1b Con1 replicon with consensus genotype 3a NS5A gene). The method in brief: (§1)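 Replicon cells stably carrying the listed RLuc-encoding dicistronic replicons were seeded and treated with DMSO serial dilutions of compound (10 mM stocks) diluted into culture medium. After 72 h, cells were lysed and Renilla luciferase activity measured. EC50 was derived by non-linear regression.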

Experiment [2] deals with HCV 2a JFH-1 Rluc cells (dicistronic genotype 2a JFH-1 replicon, RLuc reporter). To be noted: genotype 2a JFH-1 replicon, read-out: 2a JFH. The method in brief: (§2)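 Replicons used: genotype 1b Con1, 1a H77, 2a JFH-1, and a 2a JFH-1 chimera with J6-strain NS5A (M31 present), all dicistronic.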
A general note: In antiviral work, replicon cells carry a viral genome segment that copies itself.

Experiment [3] has as its system HCV 1b RLuc cells (dicistronic genotype 1b Con1 replicon, RLuc reporter). To be noted: for pEC50: read-out: 1b; for EC50: Hepatitis C virus, read-out: 1b (nM). The method in brief: as §2
Experiment [4] has as its system HCV 4a Rluc cells (NS5A chimeric genotype 1b Con1 replicon with genotype 4a NS5A gene). To be noted: read-out: 4a. The method in brief: as §1
In experiment [5] the test system is HCV 1a RLuc cells (dicistronic genotype 1a H77 replicon, RLuc reporter). Particulars: read-out: 1a. The essentials:
as §2

The mark [6] stands for this setting: read-out: 3a, genotype 3a NS5A chimeric 1b Con1 replicon.
Where [7] appears, read: genotype 1a H77 replicon, RLuc reporter.
[8] abbreviates: Hepatitis C virus, read-out: 3a, genotype 3a NS5A chimeric 1b Con1 replicon.
The mark [9] stands for this setting: Hepatitis C virus, RLuc reporter.
[10] abbreviates: Hepatitis C virus, genotype 1a H77 replicon, RLuc reporter.
[11] abbreviates: Hepatitis C virus, read-out: 3a, Table 2, genotype 3a NS5A chimeric replicon.
[12] abbreviates: Hepatitis C virus, 72 h, Table 2, 72 hours.
Setting [13] is: Hepatitis C virus, 72 h, Table 2, genotype 1a H77 replicon, 72 hours.
[14] abbreviates: Hepatitis C virus, read-out: 3a, genotype 3a replicon.
The mark [15] stands for this setting: Hepatitis C virus, genotype 1a replicon.

The structures appear in SMILES notation. pEC50: −log10 of the molar value. Where two headings read alike, the source gives them in different places.

Take `COC(=O)N[C@H](C(=O)N1CCC[C@H]1c1ncc(-c2ccc3cc(-c4ccc5c(c4)CCc4nc([C@@H]6CCCN6C(=O)[C@@H](NC(=O)OC)C6CCOCC6)[nH]c4-5)ccc3c2)[nH]1)C(C)C` [Example 222]: the pEC50 in experiment [1] (setting [6]) is 9.00 to 12.00; in experiment [2] (RLuc reporter) it was 9.00 to 12.00; in experiment [3] it was 10.64; in experiment [4] (genotype 4a NS5A chimeric 1b Con1 replicon), 9.00 to 12.00; in experiment [5] (setting [7]), 9.00 to 12.00.
Consider `COC(=O)N[C@H](C(=O)N1CCC[C@H]1c1nc2ccc3cc(-c4ccc5cc(-c6cnc([C@@H]7CCCN7C(=O)[C@H](NC(=O)N7CCOCC7)c7ccccc7)[nH]6)ccc5c4)ccc3c2[nH]1)C(C)C` [Example 288], for which the pEC50 in experiment [1] (setting [8]), in experiment [2] (setting [9]), in experiment [4] (Hepatitis C virus) and in experiment [5] (setting [10]) was 9.00 to 12.00 in each case. Moreover, the EC50 in experiment [3] is 0.009 nM.
Turning to `CCN(C(=O)OC)[C@@H](C(=O)N1CCC[C@H]1c1ncc(-c2ccc(-c3ccc4cc(-c5cnc([C@@H]6CCCN6C(=O)[C@@H](NC(=O)OC)C(C)C)[nH]5)ccc4c3)cc2)[nH]1)c1ccccc1` [Example 203], the pEC50 is < 8.30 in experiment [1] (setting [8]), 7.36 to 9.00 in experiment [2] (setting [9]), 9.00 to 12.00 in experiment [4] (Hepatitis C virus) and < 7.36 in experiment [5] (setting [10]). Besides, the EC50 in experiment [3] was 0.124 nM.
For `COC(=O)N[C@H](C(=O)N1CC2(CC2)C[C@H]1c1ncc(-c2ccc3c(c2)C(F)(F)c2cc(-c4ccc5nc([C@@H]6[C@H]7CC[C@H](C7)N6C(=O)[C@@H](c6ccccc6)N6CCOCC6)[nH]c5c4)ccc2-3)[nH]1)C(C)C` [Example 96], the pEC50 was 8.30 to 9.00 in experiment [1] (setting [11]), 7.36 to 9.00 in experiment [2] (setting [12]), 9.00 to 12.00 in experiment [4] (Hepatitis C virus) and 9.00 to 12.00 in experiment [5] (setting [13]). For the same compound, the EC50 in experiment [3] (72 h) is 0.006 nM.
Take `COC(=O)N[C@H](C(=O)N1[C@@H]2CC[C@@H](C2)[C@H]1c1ncc(-c2ccc(-c3ccc(-c4cnc([C@@H]5C[C@H]6C[C@H]6N5C(=O)[C@@H](NC(=O)OC)C(C)C)[nH]4)cc3)cc2)[nH]1)C(C)C` [Example 99]: the pEC50 is 8.30 to 9.00 in experiment [1] (setting [11]), 9.00 to 12.00 in experiment [2] (setting [12]), 9.00 to 12.00 in experiment [4] (Hepatitis C virus) and 9.00 to 12.00 in experiment [5] (setting [13]). For the same compound, the EC50 in experiment [3] (72 h) was determined as 0.021 nM.
Regarding `COC(=O)N[C@H](C(=O)N1CCC[C@H]1c1ncc(-c2ccc3cc(-c4ccc(-c5cnc([C@@H]6CCCN6C(=O)[C@H](NC(=O)CN(C)C)c6ccccc6)[nH]5)cc4)ccc3c2)[nH]1)C(C)C` [Example 237], the pEC50 in experiment [1] (setting [8]), in experiment [2] (setting [9]), in experiment [4] (Hepatitis C virus) and in experiment [5] (setting [10]) was 9.00 to 12.00 throughout. In addition, the EC50 in experiment [3] was 0.023 nM.
With `COC(=O)N[C@H](C(=O)N1CC(F)(F)C[C@H]1c1ncc(-c2ccc(-c3ccc4cc(-c5cnc([C@@H]6CCCN6C(=O)[C@H](NC(=O)OC)c6ccccc6)[nH]5)ccc4c3)cc2)[nH]1)[C@@H](C)OC` [Example 263], the pEC50 in experiment [1] (setting [8]), in experiment [2] (setting [9]), in experiment [4] (Hepatitis C virus) and in experiment [5] (setting [10]) was 9.00 to 12.00 in each case. Besides, in experiment [3], the EC50 is 0.006 nM.
In the case of `COC(=O)N[C@H](C(=O)N1CCC[C@H]1c1ncc(-c2ccc3c(c2)sc2cc(-c4cnc([C@@H]5CCCN5C(=O)[C@H](NC(=O)OC)c5ccccc5)[nH]4)ccc23)[nH]1)C(C)C` [Example 250], the pEC50 in experiment [1] (setting [8]), in experiment [2] (setting [9]), in experiment [4] (Hepatitis C virus) and in experiment [5] (setting [10]) was 9.00 to 12.00 each time. Besides, in experiment [3], the EC50 came out at 0.004 nM.
With `COC(=O)N[C@H](C(=O)N1CCC[C@H]1c1nc2ccc(-c3ccc4c(c3)C(F)(F)c3cc(-c5c[nH]c([C@@H]6CCCN6C(=O)[C@H](NC(=O)OC)c6ccccc6)n5)ccc3-4)cc2[nH]1)C(C)C` [Example 217], the pEC50 in experiment [1] (setting [8]), in experiment [2] (setting [9]), in experiment [4] (Hepatitis C virus) and in experiment [5] (setting [10]) was 9.00 to 12.00 in each case. The EC50 in experiment [3] worked out at 0.009 nM.
With `COC(=O)N[C@H](C(=O)N1CCC[C@H]1c1ncc(-c2ccc3cc(-c4ccc(-c5cnc([C@@H]6CC7(CN6C(=O)[C@H](NC(=O)OC)c6ccccc6)OCCO7)[nH]5)cc4)ccc3c2)[nH]1)C1CCOCC1` [Example 47], the pEC50 in experiment [1] (setting [11]) was 8.30 to 9.00; in experiment [2] (setting [12]), 9.00 to 12.00; in experiment [4] (Hepatitis C virus), 9.00 to 12.00; in experiment [5] (setting [13]), 9.00 to 12.00. Further, the EC50 in experiment [3] (72 h) stood at 0.037 nM.
Turning to `COC(=O)NC(C(=O)N[C@H](c1ncc(-c2ccc3c(c2)C(F)(F)c2cc(-c4ccc5nc([C@@H]6CCCN6C(=O)[C@@H](NC(=O)OC)[C@@H](C)OC)[nH]c5c4)ccc2-3)[nH]1)C(C)C)C(C)C` (some centres unmarked) [Example 248], the pEC50 in experiment [1] (setting [8]) is < 8.30; in experiment [2] (setting [9]), 7.36 to 9.00; in experiment [4] (Hepatitis C virus), 9.00 to 12.00; in experiment [5] (setting [10]) it was 7.36 to 9.00. In addition, the EC50 in experiment [3] was found to be 0.024 nM.
For `COC(=O)N[C@H](C(=O)N1CCC[C@H]1c1ncc(-c2ccc3cc(-c4ccc(-c5cnc([C@@H]6CCCN6C(=O)[C@@H](NC(=O)OC)C6CCSCC6)[nH]5)cc4)ccc3c2)[nH]1)C(C)C` [Example 278], the pEC50 in experiment [1] (setting [8]) is 8.30 to 9.00; in experiment [2] (setting [9]) it was 9.00 to 12.00; in experiment [4] (Hepatitis C virus), 9.00 to 12.00; in experiment [5] (setting [10]) it was 9.00 to 12.00. Besides, the EC50 in experiment [3] came to 0.013 nM.
On to `COC(=O)N[C@H](C(=O)N1[C@@H]2C[C@@H]2C[C@H]1c1nc2ccc3cc(-c4ccc5c(ccc6nc([C@@H]7[C@H]8CC[C@H](C8)N7C(=O)[C@H](NC(=O)OC)c7ccccc7)[nH]c65)c4)ccc3c2[nH]1)C(C)C` [Example 343], for which the pEC50 in experiment [1] (setting [14]), in experiment [2] (Hepatitis C virus), in experiment [4] (Hepatitis C virus) and in experiment [5] (setting [15]) was 9.00 to 12.00 each time. Also, the EC50 in experiment [3] stood at 0.012 nM.
As to `COC(=O)N[C@H](C(=O)N1CCC[C@H]1c1ncc(-c2ccc3c(c2)COc2c-3ccc3cc(-c4cnc([C@@H]5CCCN5C(=O)[C@H](NC(=O)OC)c5ccccc5)[nH]4)ccc23)[nH]1)C1CCOCC1` [Example 4], the pEC50 was 9.00 to 12.00 in experiment [1] (Hepatitis C virus, read-out: 3a, Table 1, genotype 3a NS5A chimeric replicon); 9.00 to 12.00 in experiment [2] (Hepatitis C virus, 72 h, Table 1, 72 hours); 9.00 to 12.00 in experiment [4] (Hepatitis C virus); 9.00 to 12.00 in experiment [5] (Hepatitis C virus, 72 h, Table 1, genotype 1a H77 replicon, 72 hours). In addition, the EC50 in experiment [3] (72 h) was found to be 0.11 nM.
Consider `COC(=O)N[C@H](C(=O)N1CC2(C[C@H]1c1ncc(-c3ccc(-c4ccc5cc(-c6cnc([C@@H]7CCCN7C(=O)[C@H](NC(=O)OC)c7ccccc7)[nH]6)ccc5c4)cc3)[nH]1)OCCO2)C1CCOCC1` [Example 50], for which the pEC50 in experiment [1] (setting [11]), in experiment [2] (setting [12]), in experiment [4] (Hepatitis C virus) and in experiment [5] (setting [13]) was 9.00 to 12.00 in each case. Besides, the EC50 in experiment [3] (72 h) was 0.031 nM.
Take `COC(=O)N[C@H](C(=O)N1CCC[C@H]1c1ncc(-c2ccc3c4ccc(-c5cnc([C@@H]6CCCN6C(=O)[C@@H](NC(=O)OC)C6CCOCC6)[nH]5)cc4c4ccccc4c3c2)[nH]1)C1CCOCC1` [Example 309]: the pEC50 in experiment [1] (setting [14]), in experiment [2] (Hepatitis C virus), in experiment [4] (Hepatitis C virus) and in experiment [5] (setting [15]) was 9.00 to 12.00 throughout. In addition, the EC50 in experiment [3] came to 0.219 nM.
In the case of `COC(=O)N[C@H](C(=O)N1CCC[C@H]1c1nc2c([nH]1)-c1ccc(-c3ccc4cc(-c5cnc([C@@H]6CCCN6C(=O)[C@H](NC(=O)OC)c6ccccc6)[nH]5)ccc4c3)cc1CC2)C1CCOCC1` [Example 279], the pEC50 in experiment [1] (setting [6]) was 9.00 to 12.00; in experiment [2] (RLuc reporter) it was 7.36 to 9.00; in experiment [3], 10.51; in experiment [4] (Hepatitis C virus), 9.00 to 12.00; in experiment [5] (setting [7]) it was 7.36 to 9.00.
Take `COC(=O)N[C@H](C(=O)N1CCC[C@H]1c1nc2ccc3cc(-c4ccc5c(c4)CCc4nc([C@@H]6[C@H]7CC[C@H](C7)N6C(=O)[C@@H](NC(=O)OC)C(C)C)[nH]c4-5)ccc3c2[nH]1)C(C)C` [Example 290]: the pEC50 in experiment [1] (setting [14]), in experiment [2] (Hepatitis C virus), in experiment [4] (Hepatitis C virus) and in experiment [5] (setting [15]) was 9.00 to 12.00 each time. Moreover, the EC50 in experiment [3] is 0.017 nM.
In the case of `COC(=O)N[C@H](C(=O)N1[C@@H]2CC[C@@H](C2)[C@H]1c1ncc(-c2ccc(-c3ccc4cc(-c5cnc([C@@H]6CCCN6C(=O)[C@H](NC(=O)OC)c6ccccc6)[nH]5)ccc4c3)cc2)[nH]1)[C@@H](C)OC` [Example 72], the pEC50 in experiment [1] (setting [11]), in experiment [2] (setting [12]), in experiment [4] (Hepatitis C virus) and in experiment [5] (setting [13]) was 9.00 to 12.00 each time. For the same compound, the EC50 in experiment [3] (72 h) amounted to 0.006 nM.
